The term IC50 denotes the concentration that gives 50% inhibition.

Data on 26 compounds can be found in ChEMBL document CHEMBL5137032, “Design, synthesis of DNA-interactive 4-thiazolidinone-based indolo-/pyrroloazepinone conjugates as potential cytotoxic and topoisomerase I inhibitors” (Eur J Med Chem, 2022).

The source made the active and inactive calls. No cut-off for these calls is given here.

What all share (type): functional, cell-based
The test system of assay [1] is SK-MEL-28. Nature of the assay: Cytotoxicity against human SK-MEL-28 cells assessed as cell growth inhibition incubated for 48 hrs by MTT assay. Conditions: SK-MEL-28, 48 h. On the technique in general: Tetrazolium assays rely on reduction of a dye to a coloured formazan, in cell work by metabolically active cells.
In assay [2] the test system is SK-MEL-28. Nature of the assay: Induction of intracellular ROS generation in human SK-MEL-28 cells at 2.26 uM incubated for 48 hrs by […] fluorescence microscopic analysis.
The subject of assay [3] is A549. Description: Induction of intracellular ROS generation in human A549 cells at […] incubated for 48 hrs by […] fluorescence microscopic analysis. To be noted: dose 0.47 µM.
The test system of assay [4] is A549. Description: Cytotoxicity against human A549 cells assessed as cell growth inhibition incubated for 48 hrs by MTT assay. To be noted: A549, 48 h.
Assay [5] concerns MCF7. Nature of the assay: Cytotoxicity against human MCF7 cells assessed as cell growth inhibition incubated for 48 hrs by MTT assay. To be noted: MCF7, 48 h.
Assay [6] has as its system HT-29. Nature of the assay: Cytotoxicity against human HT-29 cells assessed as cell growth inhibition incubated for 48 hrs by MTT assay. Conditions: HT-29, 48 h.
The subject of assay [7] is HCT-116. Description: Cytotoxicity against human HCT-116 cells assessed as cell growth inhibition incubated for 48 hrs by MTT assay. To be noted: HCT-116, 48 h.

As for `CC[C@@]1(O)C(=O)OCc2c1cc1n(c2=O)Cc2cc3ccccc3nc2-1` [CAMPTOTHECIN], the results for the IC50 in assay [1] and in assay [4] were 2.26 µM and 0.47 µM, respectively. Also, the result in assay [2] and in assay [3] was Active.

Consider `O=C1N/C(=N\Cc2ccc(C(F)(F)F)cc2)S/C1=C1/CCNC(=O)c2[nH]ccc21`, for which the IC50 was above 100 µM in assay [5]; above 50 µM in assay [6]; above 100 µM in assay [1]; above 100 µM in assay [7]; above 100 µM in assay [4].

Turning to `CC(C)(C)c1ccc(C/N=C2\NC(=O)/C(=C3\CCNC(=O)c4[nH]ccc43)S2)cc1`, the IC50 in assay [5] is 18.9 µM; in assay [6], 43.4 µM; in assay [1] it was 23.5 µM; in assay [7], above 100 µM; in assay [4], 43.9 µM.

On to `COc1ccc(C/N=C2\NC(=O)/C(=C3\CCNC(=O)c4[nH]ccc43)S2)cc1`, for which the IC50 in assay [5] was found to be 6.24 µM; in assay [6], 11.5 µM; in assay [1] it was 12.1 µM; in assay [7], 19.4 µM; in assay [4], 18.3 µM.

On to `O=C1N/C(=N\Cc2ccccc2)S/C1=C1/CCNC(=O)c2[nH]ccc21`, for which the half-inhibitory concentration (IC50) in assay [5] came out at 31.1 µM; in assay [6], 36.5 µM; in assay [1] it was 38.4 µM; in assay [7], 49.7 µM; in assay [4], 26.9 µM.

For the compound `O=C1N/C(=N\Cc2ccccc2)S/C1=C1/CCNC(=O)c2[nH]c3ccccc3c21`, the IC50 in assay [5] is 31 µM; in assay [6], 31.8 µM; in assay [1], 29.8 µM; in assay [7], 34.4 µM; in assay [4] it was 48.2 µM.

Consider `O=c1[nH]cc(F)c(=O)[nH]1` [FLUOROURACIL], for which the IC50 in assay [5] turned out to be 21.1 µM; in assay [6], 23.9 µM; in assay [1] it was 14.6 µM.

In the case of `O=C1N/C(=N\CCc2ccc(F)cc2)S/C1=C1/CCNC(=O)c2[nH]c3ccccc3c21`, the IC50 in assay [5], in assay [6], in assay [1], in assay [7] and in assay [4] was above 50 µM throughout.

In the case of `COc1ccc(CC/N=C2\NC(=O)/C(=C3\CCNC(=O)c4[nH]ccc43)S2)cc1`, the IC50 in assay [5] was 6.47 µM; in assay [6] it was 8.14 µM; in assay [1] it was 7.86 µM; in assay [7], 10.8 µM; in assay [4], 16 µM.

`O=C1N/C(=N\Cc2ccc3c(c2)OCO3)S/C1=C1/CCNC(=O)c2[nH]ccc21`: the half-inhibitory concentration (IC50) in assay [5] was 4.31 µM; in assay [6] it was 16.5 µM; in assay [1], 11.2 µM; in assay [7], 4.25 µM; in assay [4], 19.9 µM.

`O=C1N/C(=N\Cc2ccc(F)cc2)S/C1=C1/CCNC(=O)c2[nH]ccc21`: the IC50 in assay [5] is 43.1 µM; in assay [6], 26 µM; in assay [1], 11.2 µM; in assay [7], 16.9 µM; in assay [4], 22.4 µM.

Regarding `COc1ccc(C/N=C2\NC(=O)/C(=C3\CCNC(=O)c4[nH]c5ccccc5c43)S2)cc1`, the IC50 was 6.33 µM in assay [5]; 12.3 µM in assay [6]; 9.68 µM in assay [1]; 17.5 µM in assay [7]; 3.73 µM in assay [4].

In the case of `O=C1N/C(=N\Cc2ccc3c(c2)OCO3)S/C1=C1/CCNC(=O)c2[nH]c3ccccc3c21`, the IC50 is 31.4 µM in assay [5]; 36.5 µM in assay [6]; above 50 µM in assay [1]; 21.4 µM in assay [7]; above 50 µM in assay [4].

As to `CC(C)(C)c1ccc(C/N=C2\NC(=O)/C(=C3\CCNC(=O)c4[nH]c5ccccc5c43)S2)cc1`, the 50% inhibitory concentration (IC50) in assay [5] stood at 9.01 µM; in assay [6] it was 13.6 µM; in assay [1], 8.97 µM; in assay [7], 15.9 µM; in assay [4], 19.3 µM.

As for `O=C1N/C(=N\Cc2ccc(Cl)cc2)S/C1=C1/CCNC(=O)c2[nH]ccc21`, the IC50 in assay [5], in assay [6], in assay [1], in assay [7] and in assay [4] was above 100 µM in each case.

As to `COc1cccc2c1C(=O)c1c(O)c3c(c(O)c1C2=O)C[C@@](O)(C(=O)CO)C[C@@H]3O[C@H]1C[C@H](N)[C@H](O)[C@H](C)O1` [DOXORUBICIN], the IC50 in assay [1] stood at 1.64 µM; in assay [7], 7.41 µM.

`COc1ccc(CC/N=C2\NC(=O)/C(=C3\CCNC(=O)c4[nH]c5ccccc5c43)S2)cc1`: the IC50 in assay [5] was 9.41 µM; in assay [6], 15 µM; in assay [1], 3.49 µM; in assay [7], 18.6 µM; in assay [4], 20.5 µM.

Consider `O=C1N/C(=N\Cc2cccc(Cl)c2)S/C1=C1/CCNC(=O)c2[nH]ccc21`, for which the IC50 is 20.7 µM in assay [5], 35.3 µM in assay [6], 34.6 µM in assay [1] and 35.2 µM in assay [4].

As to `Cn1c2c(c3ccccc31)/C(=C1\S/C(=N/Cc3ccccc3)NC1=O)CCNC2=O`, the IC50 in assay [5], in assay [6], in assay [1], in assay [7] and in assay [4] was above 50 µM throughout.

As for `COc1ccc(C/N=C2\NC(=O)/C(=C3\CCNC(=O)c4[nH]c5ccccc5c43)S2)cc1OC`, the IC50 in assay [5] was 23.7 µM; in assay [6], above 50 µM; in assay [1], 25.1 µM; in assay [7], 16.4 µM; in assay [4] it was 30 µM.

For the compound `O=C1N/C(=N\Cc2ccc(Cl)cc2)S/C1=C1/CCNC(=O)c2[nH]c3ccccc3c21`, the IC50 in assay [5] is 46.8 µM; in assay [6] it was 39.9 µM; in assay [1], above 50 µM; in assay [7], 22.7 µM; in assay [4], 33.6 µM.

Take `O=C1N/C(=N\CCc2ccccc2)S/C1=C1/CCNC(=O)c2[nH]ccc21`: the IC50 in assay [5] was determined as 21 µM; in assay [6] it was 24.9 µM; in assay [1] it was 12.3 µM; in assay [7] it was 17.8 µM; in assay [4] it was 19.5 µM.

Regarding `O=C1N/C(=N\Cc2ccc(F)cc2)S/C1=C1/CCNC(=O)c2[nH]c3ccccc3c21`, the IC50 in assay [5] was 40.3 µM; in assay [6], 38 µM; in assay [1], above 50 µM; in assay [7], 30.8 µM; in assay [4] it was 36.5 µM.

In the case of `O=C1N/C(=N\Cc2ccccc2Cl)S/C1=C1/CCNC(=O)c2[nH]ccc21`, the half-maximal inhibitory concentration (IC50) is 21.2 µM in assay [5]; above 100 µM in assay [6]; above 100 µM in assay [1]; above 50 µM in assay [7]; above 100 µM in assay [4].

Regarding `O=C1N/C(=N\Cc2cccc(Cl)c2)S/C1=C1/CCNC(=O)c2[nH]c3ccccc3c21`, the IC50 in assay [5] was 28.1 µM; in assay [6], above 50 µM; in assay [1], 23.8 µM; in assay [7] it was 25.2 µM; in assay [4] it was 33.7 µM.

For the compound `COc1ccc(C/N=C2\NC(=O)/C(=C3\CCNC(=O)c4c3ccn4C)S2)cc1`, the IC50 in assay [5] is above 100 µM; in assay [6], 32.4 µM; in assay [1], above 100 µM; in assay [7], above 100 µM; in assay [4] it was above 100 µM.
